# Results as given in the supplement of paper PMC13380429.
# Columns and labels:
# Conditions in all cases: 72 h
# [1] = test system: U2OS; assay: drug sensitivity score (DSS) for viability; higher = more toxic; extreme values may be limits of the assay
# [2] = test system: Caco-2; assay: as above
# [3] = test system: Calu-3; assay: as above
# [4] = test system: HepG2; assay: as above
# [5] = test system: Vero E6; assay: as above
# [6] = test system: U2OS; assay: cell viability relative to DMSO; higher = less toxic
# [7] = test system: Caco-2; assay: as above
# [8] = test system: Calu-3; assay: as above
# [9] = test system: HepG2; assay: as above
# [10] = test system: Vero E6; assay: as above
# [11] = test system: U2OS; assay: relative viability EC50 (midpoint between 100% and the lowest measured viability); higher = less toxic
# [12] = test system: Caco-2; assay: as above
# [13] = test system: Calu-3; assay: as above
# [14] = test system: HepG2; assay: as above
# [15] = test system: Vero E6; assay: as above
Structure (SMILES),drug sensitivity score [1],drug sensitivity score [2],drug sensitivity score [3],drug sensitivity score [4],drug sensitivity score [5],cell viability ([6]; 1 nM) [%],cell viability ([6]; 10 nM) [%],cell viability ([6]; 100 nM) [%],cell viability ([6]; 1000 nM) [%],cell viability ([6]; 10000 nM) [%],cell viability ([7]; 1 nM) [%],cell viability ([7]; 10 nM) [%],cell viability ([7]; 100 nM) [%],cell viability ([7]; 1000 nM) [%],cell viability ([7]; 10000 nM) [%],cell viability ([8]; 1 nM) [%],cell viability ([8]; 10 nM) [%],cell viability ([8]; 100 nM) [%],cell viability ([8]; 1000 nM) [%],cell viability ([8]; 10000 nM) [%],cell viability ([9]; 1 nM) [%],cell viability ([9]; 10 nM) [%],cell viability ([9]; 100 nM) [%],cell viability ([9]; 1000 nM) [%],cell viability ([9]; 10000 nM) [%],cell viability ([10]; 1 nM) [%],cell viability ([10]; 10 nM) [%],cell viability ([10]; 100 nM) [%],cell viability ([10]; 1000 nM) [%],cell viability ([10]; 10000 nM) [%],relative viability EC50 [11] [µM],relative viability EC50 [12] [µM],relative viability EC50 [13] [µM],relative viability EC50 [14] [µM],relative viability EC50 [15] [µM]
CCCCOc1cc(C(=O)OCCN(CC)CC)ccc1N [oxybuprocaine],0,0,0,0,0,104,96.7,105,101,101,106,96.9,98.7,100,100,96,106,110,107,98.7,105,117,95.7,97.8,90,103,105,101,102,97.9,> 10,> 10,> 10,> 10,> 10
CC[C@H]1OC(=O)[C@H](C)C(=O)[C@H](C)[C@@H](O[C@@H]2O[C@H](C)C[C@H](N(C)C)[C@H]2O)[C@](C)(OC)C[C@@H](C)C(=O)[C@H](C)[C@H]2N(CCCCn3cnc(-c4cccnc4)c3)C(=O)O[C@]12C [telithromycin],0,0,0,0,0,88,95.4,95,95.2,97,100,99.5,100,104,89,107,101,89,99.8,100,105,96.6,103,101,109,98.1,98.9,96.1,96.1,106,> 10,> 10,> 10,> 10,> 10
CC(C)c1nnc(-c2ccc(-c3ccccc3)nc2)n1-c1cccc2nonc12 [ASP-2535],,0,0,0,0,,,,,,104,99,96.4,95.5,96.2,103,92.2,103,93.3,103,104,106,107,107,88.7,98.8,102,97.8,102,92.9,,> 10,> 10,> 10,> 10
CC1(C)[C@@H](O)CC[C@]2(C)[C@H]3C(=O)C=C4[C@@H]5C[C@@](C)(C(=O)O)CC[C@]5(C)CC[C@@]4(C)[C@]3(C)CC[C@@H]12 [enoxolone],0,0,0,0,0,99.4,93.2,95.4,99.6,98.6,96.6,101,97,87.2,96.3,110,106,98.6,105,99.1,75.2,90.9,87,95.9,96,93.1,99.8,95.2,103,92.5,> 10,> 10,> 10,> 10,> 10
COc1ccc2cc(-c3cc(-c4cc(Cl)cc(Cl)c4)nn3[C@@H](C)c3ccc(C(=O)NCCC(=O)O)cc3)ccc2c1 [MK-0893],0,0,0,0,0.6,95.8,98.2,93.9,96.8,89.6,87.9,93.7,95.8,90.1,87.6,110,94.7,97.7,96.2,91.3,88.5,106,86.8,93.8,90,97.7,102,98.8,92.3,84.5,> 10,> 10,> 10,> 10,> 10
Cc1cc2sc(NC(=O)Cc3ccccc3)nc2cc1Cl [LH846],,0,0,0,0,,,,,,95.8,93.3,101,110,101,115,105,110,100,92.7,98.7,119,103,102,108,96.5,99.2,98,93.5,107,,> 10,> 10,> 10,> 10
O=c1cc(-c2ccccc2)oc2cc(O)c(O)c(O)c12 [baicalein],2.6,0.9,0,0,0,99.9,97.5,101,95.2,62.6,96.2,99.7,96.9,99.2,77.1,105,101,103,103,87.5,92.1,102,90.8,101,104,91.4,98.3,93.1,97,104,,> 10,> 10,> 10,> 10
NC(=O)c1cccnc1 [nicotinamide],,0,0,0,0,,,,,,100,107,94.9,99.2,101,107,114,120,110,94.1,114,103,101,101,90.2,107,108,102,104,99.5,,> 10,> 10,> 10,> 10
CN1CCC[C@@H]1Cc1c[nH]c2ccc(CCS(=O)(=O)c3ccccc3)cc12 [eletriptan],0,0,0.1,0,,98.6,104,94.6,104,96.3,96.5,98,104,105,96.1,88.5,102,97.8,95.2,87.3,103,99.6,96.7,95.6,97,,,,,,> 10,> 10,> 10,> 10,
CCCCC1=NC2(CCCC2)C(=O)N1Cc1ccc(-c2ccccc2-c2nnn[nH]2)cc1 [irbesartan],,0,0,0,0,,,,,,109,97.1,106,104,109,100,97.1,100,101,108,107,104,102,99.9,106,100,101,99.7,93.6,94.6,,> 10,> 10,> 10,> 10
O=C(c1ccc(F)cc1)C1CCN(CCn2c(=S)[nH]c3ccccc3c2=O)CC1 [altanserin],0,0.2,0,1.7,,98.2,96.7,103,96.5,97.1,103,82.7,94.2,89,90.6,104,103,112,97.3,111,108,107,88.2,96,86.4,,,,,,> 10,> 10,> 10,> 10,
Cc1nc(C)c(-c2ccc(C3CCC(CC(=O)O)CC3)cc2)nc1C(N)=O (stereo unspecified) [AZD7687],,0.1,0,0,0,,,,,,116,99.6,97.7,102,86.2,104,104,98.2,96.7,105,105,104,109,102,92.1,103,100,97.3,99.9,98.5,,> 10,> 10,> 10,> 10
O=C(O)c1cc(N2N=C(C(F)(F)F)/C(=C/c3ccc(-c4ccccc4)o3)C2=O)ccc1Cl [EN460],0,0,0,0,,101,102,97.9,98.6,100,101,95.2,101,97.8,96.3,102,89.9,97.6,92.6,100,106,97.9,101,105,92.1,,,,,,> 10,> 10,> 10,> 10,
c1ccc2c(c1)CCCC2C1=NCCN1 (stereo unspecified) [tetrahydrozoline],,0,0,0,0.7,,,,,,105,101,99,92.5,106,109,97.9,112,110,99.5,93,104,91.2,100,104,68.7,103,61.2,108,68.4,,> 10,> 10,> 10,
O=C(c1ccccn1)c1cnn2c(-c3ccncc3)ccnc12 [ocinaplon],0,,0,0,0,94,103,99.2,102,99.2,,,,,,98.7,93.6,104,95.7,107,108,98.7,107,93.5,95.1,104,99.2,100,102,102,> 10,,> 10,> 10,> 10
Cc1cc(CCCOc2c(C)cc(-c3noc(C(F)(F)F)n3)cc2C)on1 [pleconaril],,0,0,0,0,,,,,,96.6,102,103,102,105,97.8,93.7,96,90.3,93.9,98.6,94.2,102,103,112,94.2,96.8,91.6,92.5,98,,> 10,> 10,> 10,> 10
